Source: patent US4325946A, “Anthracycline glycosides, their preparation, use and compositions thereof” (Farmitalia Carlo Erba S.p.A., priority 1979, dated 1982)
Structures can show the parent of a compound that is named as a salt.

How the values were obtained:
P-388 ascitic leukemia = experiment: Activity on ascitic P-388 leukemia in mice; format: in vivo; conditions: for Toxic Deaths: macroscopic autoptic findings
Description: (§1) The new compounds according to the invention were tested in HeLa cells in vitro (time of exposure to the drugs: 24 hours) and on P-388 ascitic leukemia in mice in comparison with daunorubicin (daunomycin) and doxorubicin (adriamycin).
Activity on Ascitic P-388 Leukemia in Mice
^(a) Mice were treated i.p. on day 1 after tumor cell inoculation.
^(b) Median survival time of treated mice/median survival time of
^(c) Evaluated on the basis of macroscopic autoptic findings.
^(d) Longtime survival.

HeLa cells = experiment: Effect on HeLa cells cloning efficiency in vitro; format: cell-based; conditions: HeLa cells exposed 24 hours, then plated, colonies evaluated 5 days later; for IC50: Homo sapiens, read-out: ID50 (the source's name)
Description: as §1
Effect on HeLa Cells Cloning Efficiency In Vitro^(a)
^(a) HeLa cells were exposed to the test compounds for 24 hours, then
plated. The number of colonies was evaluated 5 days later.

## COc1cccc2c1C(=O)c1c(O)c3c(c(O)c1C2=O)C[C@@](O)(C(=O)CO)C[C@@H]3O[C@H]1C[C@H](N)[C@H](O)[C@H](C)O1 [Doxorubicin . HCl, Doxorubicin, reference compound]
P-388 ascitic leukemia; 6.6 mg/Kg i.p. on day 1
  LTS (longtime survival): 2/30
  T/C (median survival time of treated mice/control mice × 100): 193%
  Toxic Deaths: 0/30
P-388 ascitic leukemia; 10 mg/Kg i.p. on day 1
  LTS (longtime survival): 5/28
  T/C (median survival time of treated mice/control mice × 100): 227%
  Toxic Deaths: 1/28
HeLa cells
  IC50: 8.4 ng/mL

## 4'-epi-4'-C-methyl-doxorubicin [I-D]
P-388 ascitic leukemia; 1 mg/Kg i.p. on day 1
  T/C (median survival time of treated mice/control mice × 100): 150%
  Toxic Deaths: 0/10
P-388 ascitic leukemia; 2 mg/Kg i.p. on day 1
  T/C (median survival time of treated mice/control mice × 100): 156%
  Toxic Deaths: 0/10
HeLa cells
  ID50: 0.62 ng/mL

## COc1cccc2c1C(=O)c1c(O)c3c(c(O)c1C2=O)CC(O)(C(=O)CO)CC3OC1CC(N)C(C)(O)C(C)O1.Cl (stereo not shown) [I-B, 4'-C-methyl-doxorubicin]
P-388 ascitic leukemia; 6 mg/Kg i.p. on day 1
  T/C (median survival time of treated mice/control mice × 100): 186%
  Toxic Deaths: 0/10
P-388 ascitic leukemia; 7.7 mg/Kg i.p. on day 1
  T/C (median survival time of treated mice/control mice × 100): 172%
  Toxic Deaths: 0/10
P-388 ascitic leukemia; 10 mg/Kg i.p. on day 1
  LTS (longtime survival): 3/20
  T/C (median survival time of treated mice/control mice × 100): 233%
  Toxic Deaths: 2/20
HeLa cells
  ID50: 18 ng/mL

## 4'-C-methyl-daunorubicin [I-A]
P-388 ascitic leukemia; 10 mg/Kg i.p. on day 1
  T/C (median survival time of treated mice/control mice × 100): 150%
  Toxic Deaths: 0/10
P-388 ascitic leukemia; 20 mg/Kg i.p. on day 1
  T/C (median survival time of treated mice/control mice × 100): 155%
  Toxic Deaths: 0/10
HeLa cells
  ID50: 35 ng/mL

## COc1cccc2c1C(=O)c1c(O)c3c(c(O)c1C2=O)C[C@@](O)(C(C)=O)C[C@@H]3O[C@H]1C[C@H](N)[C@H](O)[C@H](C)O1 [Daunorubicin . HCl, Daunorubicin, reference compound]
P-388 ascitic leukemia; 2.9 mg/Kg i.p. on day 1
  T/C (median survival time of treated mice/control mice × 100): 175%
  Toxic Deaths: 0/40
P-388 ascitic leukemia; 4.4 mg/Kg i.p. on day 1
  T/C (median survival time of treated mice/control mice × 100): 180%
  Toxic Deaths: 3/39
HeLa cells
  IC50: 9 ng/mL

## 4'-epi-4'-C-methyl-daunorubicin [I-C]
P-388 ascitic leukemia; 0.29 mg/Kg i.p. on day 1
  T/C (median survival time of treated mice/control mice × 100): 140%
  Toxic Deaths: 0/10
P-388 ascitic leukemia; 0.44 mg/Kg i.p. on day 1
  T/C (median survival time of treated mice/control mice × 100): 163%
  Toxic Deaths: 0/10
P-388 ascitic leukemia; 0.66 mg/Kg i.p. on day 1
  T/C (median survival time of treated mice/control mice × 100): 158%
  Toxic Deaths: 1/20
HeLa cells
  ID50: 2.8 ng/mL
